Measured values taken from patent publication US20260035340A1, “INHIBITORS OF AKR1C3 AND METHODS OF USE” (BOARD OF REGENTS OF THE UNIVERSITY OF NEBRASKA, priority 2022, published 2026).
Where two headings read alike, the source gives them in different places.

Columns and labels:
Assay type in all cases: biochemical
AKR1C3 = AKR1C3 (Homo sapiens (Human), UniProt P42330); assay: AKR enzyme inhibition assay, NADP+ dependent oxidation of S-tetralol, AKR1C3; conditions: for selectivity over AKR1C2: AKR1C3 over AKR1C2; for Selectivity 1C2:1C3: ratio of AKR1C2 to AKR1C3 IC50
Sequence of AKR1C3 (P42330 whole entry): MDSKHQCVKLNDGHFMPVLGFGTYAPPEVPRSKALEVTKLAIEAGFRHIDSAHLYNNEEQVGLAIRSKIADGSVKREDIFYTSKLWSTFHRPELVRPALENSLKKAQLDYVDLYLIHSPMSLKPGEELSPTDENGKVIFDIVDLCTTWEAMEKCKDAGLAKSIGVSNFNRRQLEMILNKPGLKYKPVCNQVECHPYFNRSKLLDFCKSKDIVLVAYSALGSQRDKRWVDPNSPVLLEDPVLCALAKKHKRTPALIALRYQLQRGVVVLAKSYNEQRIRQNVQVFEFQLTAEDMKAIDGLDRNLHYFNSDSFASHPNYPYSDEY
Procedure: (§1) Structure-Activity Relationship: The ability of compounds to inhibit AKR1C3 in the first instance were determined by measuring the NADP+ dependent oxidation of S-tetralol catalyzed by recombinant enzyme as described herein. […] Assay of enzyme activity: The dehydrogenase activities of AKR1C1, AKR1C2, and AKR1C3 were determined by measuring the formation of NADH formation at 340 nm using Beckman DU640 spectrophotometer. […] After continuously monitoring for 5 min, the increase in UV absorption using different concentrations of enzyme were recorded to calculate the initial velocity and determine enzyme specific activity. IC50 value determination: The inhibitory potency for each compound was represented by IC50 value and measured as described before. […] The concentration of S-tetralol used in the assays for each AKR1C isoform was equal to the Km value for the respective enzyme so that IC50 values could be directly compared assuming a competitive pattern of inhibition. […] In this equation, “range” is the fitted uninhibited value minus the “background”, and “S” is a slope factor. “I” is the concentration of inhibitor. The equation assumes that y falls with increasing “I”.

AKR1C2 = AKR1C2 (Homo sapiens (Human), UniProt P52895); assay: AKR enzyme inhibition assay, NADP+ dependent oxidation of S-tetralol, AKR1C2 counter-screen
Sequence of AKR1C2 (P52895 whole entry): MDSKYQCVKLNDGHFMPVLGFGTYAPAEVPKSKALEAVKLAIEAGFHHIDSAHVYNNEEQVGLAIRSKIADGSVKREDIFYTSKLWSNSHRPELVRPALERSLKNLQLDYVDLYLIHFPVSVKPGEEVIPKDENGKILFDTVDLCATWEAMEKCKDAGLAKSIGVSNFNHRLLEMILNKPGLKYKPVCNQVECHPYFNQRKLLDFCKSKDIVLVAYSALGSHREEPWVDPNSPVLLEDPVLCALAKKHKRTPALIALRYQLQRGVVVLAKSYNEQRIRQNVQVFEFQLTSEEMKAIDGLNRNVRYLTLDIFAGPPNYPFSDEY
Procedure: as §1

AKR1C4 = AKR1C4 (Homo sapiens (Human), UniProt P17516); assay: AKR enzyme inhibition assay, AKR1C4; conditions: Table 2; recombinant enzyme; read-out: IC50 ± SD AKR1C4
Sequence of AKR1C4 (P17516 whole entry): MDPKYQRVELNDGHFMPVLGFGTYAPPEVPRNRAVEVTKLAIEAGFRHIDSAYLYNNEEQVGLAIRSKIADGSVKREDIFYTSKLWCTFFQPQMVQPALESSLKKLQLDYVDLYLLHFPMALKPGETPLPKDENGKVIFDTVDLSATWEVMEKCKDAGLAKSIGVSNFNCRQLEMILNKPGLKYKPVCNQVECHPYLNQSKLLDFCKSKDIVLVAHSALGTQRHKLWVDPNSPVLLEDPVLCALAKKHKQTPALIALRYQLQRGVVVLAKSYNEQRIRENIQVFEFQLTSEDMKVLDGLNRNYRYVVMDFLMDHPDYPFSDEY
Procedure: (§2) Assay of enzyme activity: The dehydrogenase activities of AKR1C1, AKR1C2, and AKR1C3 were determined by measuring the formation of NADH formation at 340 nm using Beckman DU640 spectrophotometer. […] After continuously monitoring for 5 min, the increase in UV absorption using different concentrations of enzyme were recorded to calculate the initial velocity and determine enzyme specific activity. IC50 value determination: The inhibitory potency for each compound was represented by IC50 value and measured as described before. […] The concentration of S-tetralol used in the assays for each AKR1C isoform was equal to the Km value for the respective enzyme so that IC50 values could be directly compared assuming a competitive pattern of inhibition. […] In this equation, “range” is the fitted uninhibited value minus the “background”, and “S” is a slope factor. “I” is the concentration of inhibitor. The equation assumes that y falls with increasing “I”.

AKR1C1 = AKR1C1 (Homo sapiens (Human), UniProt Q04828); assay: AKR enzyme inhibition assay, NADP+ dependent oxidation of S-tetralol, AKR1C1; conditions: Table 2; recombinant enzyme, S-tetralol at Km; read-out: IC50 ± SD AKR1C1
Sequence of AKR1C1 (Q04828 whole entry): as the sequence (P52895 whole entry) above, with V38T, H47R, V54L, S87C, M151V, H170R, L172Q counted along it
Procedure: as §2

[1] = Table 2, recombinant enzyme, S-tetralol at Km, read-out: IC50 ± SD AKR1C3
[2] = Table 2, recombinant enzyme, S-tetralol at Km, read-out: IC50 ± SD AKR1C2
[3] = Table 3, compounds of formula (A4), read-out: IC50 AKR1C3
[4] = Table 4, compounds of formula (A3), read-out: IC50 AKR1C3

Cc1ccc(CNC(=O)c2cc(C#CC3CC3)cc(/C=C/C(=O)O)c2)cc1 [Compound A1-bb, (E)-3-(3-(Cyclopropylethynyl)-5-((4-methylbenzyl)carbamoyl)phenyl)acrylic acid]
selectivity over AKR1C2 (AKR1C3): 74 fold | IC50 (AKR1C3; [1]): 0.5 ± 0.04 µM | IC50 (AKR1C2; [2]): 37 ± 9.6 µM

Cc1ccc(CNC(=O)c2cc(Br)cc(/C=C/C(=O)O)c2)cc1 [Compound 11, (E)-3-(3-Bromo-5-((4-methylbenzyl)carbamoyl)phenyl)acrylic acid]
Selectivity 1C2:1C3 (AKR1C3; Table 2): >333 | IC50 (AKR1C3; [1]): 0.3 ± 0.01 µM | IC50 (AKR1C2; [2]): > 100 µM | IC50 (AKR1C4): 40 ± 1.3 µM

Cc1ccc(CNC(=O)c2cc(Br)cc(/C=C/C(N)=O)c2)cc1 [Compound 12, (E)-3-(3-Amino-3-oxoprop-1-en-1-yl)-5-bromo-N-(4-methylbenzyl)benzamide]
IC50 (AKR1C3; [3]): 28 ± 2.9 µM

Cc1ccc(CNC(=O)c2cc(/C=C/C(=O)O)cc(-c3ccc(C)cc3)c2)cc1 [Compound A1-i, (E)-3-(4′-Methyl-5-((4-methylbenzyl)carbamoyl)-[1,1′-biphenyl]-3-yl)acrylic acid]
Selectivity 1C2:1C3 (AKR1C3; Table 2): 160 | IC50 (AKR1C3; [1]): 0.1 ± 0.008 µM | IC50 (AKR1C2; [2]): 16 ± 3.9 µM | IC50 (AKR1C1): 66 ± 17 µM | IC50 (AKR1C4): 10 ± 1.72 µM

Cc1ccc(CNC(=O)c2cc(/C=C/C(=O)O)cc(-c3ccc4c(c3)OCCO4)c2)cc1 [Compound A1-s, (E)-3-(3-(2,3-Dihydrobenzo[b][1,4]dioxin-6-yl)-5-((4-methylbenzyl)carbamoyl)phenyl)acrylic acid]
selectivity over AKR1C2 (AKR1C3): 200 fold | IC50 (AKR1C3; [1]): 0.11 ± 0.011 µM | IC50 (AKR1C2; [2]): 22 ± 4.5 µM | IC50 (AKR1C1): > 100 µM | IC50 (AKR1C4): 53 ± 7.1 µM

Cc1ccc(CNC(=O)c2cc(/C=C/C(=O)O)cc(-c3ccc(CN4CCOCC4)c(F)c3)c2)cc1 [Compound A1-y, (E)-3-(3′-Fluoro-5-((4-methylbenzyl)carbamoyl)-4′-(morpholinomethyl)-[1,1′-biphenyl]-3-yl)acrylic acid]
selectivity over AKR1C2 (AKR1C3): 16 fold | IC50 (AKR1C3; read-out: IC50 AKR1C3): 0.33 µM | IC50 (AKR1C2; [2]): 5.1 ± 0.6 µM

Cc1ccc(CNC(=O)c2cc(C#Cc3ccccc3)cc(/C=C/C(=O)O)c2)cc1 [Compound A1-w, (E)-3-(3-((4-methylbenzyl)carbamoyl)-5-(phenylethynyl)phenyl)acrylic acid]
selectivity over AKR1C2 (AKR1C3): 61 fold | IC50 (AKR1C3; [1]): 0.18 ± 0.019 µM | IC50 (AKR1C2; [2]): 11 ± 3.1 µM

Cc1ccc(CNC(=O)c2cc(/C=C/C(=O)O)cc(-c3ccccc3F)c2)cc1 [Compound A1-e, (E)-3-(2′-Fluoro-5-((4-methylbenzyl)carbamoyl)-[1,1′-biphenyl]-3-yl)acrylic acid]
Selectivity 1C2:1C3 (AKR1C3; Table 2): >1430 | IC50 (AKR1C3; [1]): 0.07 ± 0.009 µM | IC50 (AKR1C2; [2]): > 100 µM | IC50 (AKR1C1): > 100 µM | IC50 (AKR1C4): 15.4 ± 1.7 µM

CC[C@@H](NC(=O)c1cc(/C=C/C(=O)O)cc(-c2ccc(C(C)C)cc2)c1)c1ccccc1 [Compound 20a, (R,E)-3-(4′-Isopropyl-5-((1-phenylpropyl)carbamoyl)-[1,1′-biphenyl]-3-yl)acrylic acid]
IC50 (AKR1C3; [4]): 0.12 ± 0.014 µM | Selectivity 1C2:1C3 (AKR1C3; Table 4): 51 | IC50 (AKR1C2; Table 4, compounds of formula (A3), read-out: IC50 AKR1C2): 6 ± 1.4 µM

COC(=O)/C=C/c1cc(Br)cc(C(=O)NCc2ccc(C)cc2)c1 [Compound 3]
IC50 (AKR1C3; read-out: IC50 AKR1C3): 0.2 µM

Cc1ccc(CNC(=O)c2cc(/C=C/C(=O)O)cc(-c3ccc(Br)cc3)c2)cc1 [Compound A1-b, (E)-3-(4′-Bromo-5-((4-methylbenzyl)carbamoyl)-[1,1′-biphenyl]-3-yl)acrylic acid]
IC50 (AKR1C3; read-out: IC50 AKR1C3): 0.09 µM | IC50 (AKR1C2; [2]): 25 ± 7 µM | IC50 (AKR1C1): 107 ± 8 µM | IC50 (AKR1C4): 6.5 ± 0.6 µM

CC(C)=CCOc1cc(/C=C/C(=O)O)cc(C(=O)NCc2ccc(C)cc2)c1 [Compound 10, (E)-3-(3-((4-Methylbenzyl)carbamoyl)-5-((3-methylbut-2-en-1-yl)oxy)phenyl)acrylic acid]
Selectivity 1C2:1C3 (AKR1C3; Table 2): 187 | IC50 (AKR1C3; [1]): 0.08 ± 0.01 µM | IC50 (AKR1C2; [2]): 15 ± 2.4 µM | IC50 (AKR1C1): 52 ± 7 µM | IC50 (AKR1C4): 31 ± 5 µM

Cc1ccc(CNC(=O)c2cc(Br)cc(/C=C/C#N)c2)cc1 [Compound 15, (E)-3-Bromo-5-(2-cyanovinyl)-N-(4-methylbenzyl)benzamide]
IC50 (AKR1C3; read-out: IC50 AKR1C3): 0.17 µM

CCc1ccc(-c2cc(/C=C/C(=O)O)cc(C(=O)NCc3ccc(C)cc3)c2)cc1 [Compound A1-j, (E)-3-(4′-Ethyl-5-((4-methylbenzyl)carbamoyl)-[1,1′-biphenyl]-3-yl)acrylic acid]
IC50 (AKR1C3; [1]): 0.19 ± 0.01 µM

C/C=C\Cc1cc(/C=C/C(=O)O)cc(C(=O)NCc2ccc(C)cc2)c1 [Compound A1-aa, (E)-3-(3-((Z)-but-2-en-1-yl)-5-((4-methylbenzyl)carbamoyl)phenyl)acrylic acid]
selectivity over AKR1C2 (AKR1C3): 200 fold | IC50 (AKR1C3; [1]): 0.08 ± 0.004 µM | IC50 (AKR1C2; [2]): 16 ± 2.5 µM | IC50 (AKR1C1): 81 ± 5.1 µM | IC50 (AKR1C4): 25 ± 3.1 µM

Cc1ccc(CNC(=O)c2cc(/C=C/C(=O)O)cc(-c3ccc(C(F)(F)F)cc3)c2)cc1 [Compound A1-h, (E)-3-(5-((4-Methylbenzyl)carbamoyl)-4′-(trifluoromethyl)-[1,1′-biphenyl]-3-yl)acrylic acid]
IC50 (AKR1C3; [1]): 0.2 ± 0.02 µM

Cc1ccc(CNC(=O)c2cc(/C=C/C(=O)O)cc(-c3ccc(C(C)C)cc3)c2)cc1 [Compound A1-k, (E)-3-(4′-Isopropyl-5-((4-methylbenzyl)carbamoyl)-[1,1′-biphenyl]-3-yl)acrylic acid]
IC50 (AKR1C3; read-out: IC50 AKR1C3): 0.19 µM

Cc1ccc(CNC(=O)c2cc(/C=C/C(=O)O)cc(-c3ccc4cccnc4c3)c2)cc1 [Compound A1-p, (E)-3-(3-((4-Methylbenzyl)carbamoyl)-5-(quinolin-7-yl)phenyl)acrylic acid]
Selectivity 1C2:1C3 (AKR1C3; Table 2): 109 | IC50 (AKR1C3; [1]): 0.11 ± 0.017 µM | IC50 (AKR1C2; [2]): 12 ± 2.8 µM | IC50 (AKR1C1): 80 ± 13 µM | IC50 (AKR1C4): 22 ± 2.3 µM

Cc1ccc(CNC(=O)c2cc(/C=C/C#N)cc(-c3ccc(Oc4ccccc4)cc3)c2)cc1 [Compound 16a, (E)-5-(2-Cyanovinyl)-N-(4-methylbenzyl)-4′-phenoxy-[1,1′-biphenyl]-3-carboxamide]
IC50 (AKR1C3; [3]): 1.4 ± 0.3 µM | IC50 (AKR1C3; read-out: IC50 AKR1C3): 1.4 µM

Cc1ccc(CNC(=O)c2cc(/C=C/C(=O)O)cc(-c3ccc4nccnc4c3)c2)cc1 [Compound A1-q, (E)-3-(3-((4-Methylbenzyl)carbamoyl)-5-(quinoxalin-6-yl)phenyl)acrylic acid]
Selectivity 1C2:1C3 (AKR1C3; Table 2): 133 | IC50 (AKR1C3; read-out: IC50 AKR1C3): 0.094 µM | IC50 (AKR1C2; [2]): 12.5 ± 2.1 µM | IC50 (AKR1C1): 70 ± 48 µM | IC50 (AKR1C4): 31 ± 2.9 µM

Cc1ccc(CNC(=O)c2cc(/C=C/C(=O)O)cc(-c3ccc4ccccc4c3)c2)cc1 [Compound A1-o, (E)-3-(3-((4-Methylbenzyl)carbamoyl)-5-(naphthalen-2-yl)phenyl)acrylic acid]
selectivity over AKR1C2 (AKR1C3): 140 fold | IC50 (AKR1C3; read-out: IC50 AKR1C3): 0.1 µM | IC50 (AKR1C2; [2]): 14 ± 4.1 µM | IC50 (AKR1C1): 78 ± 9.3 µM | IC50 (AKR1C4): 6.1 ± 0.47 µM

CC(C)=CCc1cc(/C=C/C#N)cc(C(=O)NCc2ccc(C)cc2)c1 [Compound 16b, (E)-3-(2-Cyanovinyl)-N-(4-methylbenzyl)-5-(3-methylbut-2-en-1-yl)benzamide]
IC50 (AKR1C3; [3]): 2.7 ± 0.37 µM | IC50 (AKR1C3; read-out: IC50 AKR1C3): 2.7 µM

Cc1ccc(CNC(=O)c2cc(/C=C/C(=O)O)cc(CC(C)c3ccccc3)c2)cc1 (stereo not drawn) [Compound A1-x, (E)-3-(3-((4-Methylbenzyl)carbamoyl)-5-(2-phenylpropyl)phenyl)acrylic acid]
selectivity over AKR1C2 (AKR1C3): 177 fold | IC50 (AKR1C3; read-out: IC50 AKR1C3): 0.88 µM | IC50 (AKR1C2; [2]): 156 ± 71 µM

Cc1ccc(CNC(=O)c2cc(/C=C/C(=O)O)cc(-c3ccc(C#N)cc3)c2)cc1 [Compound A1-m, (E)-3-(4′-Cyano-5-((4-methylbenzyl)carbamoyl)-[1,1′-biphenyl]-3-yl)acrylic acid]
IC50 (AKR1C3; [1]): 0.17 ± 0.01 µM

Cc1ccc(CNC(=O)c2cc(Br)cc(/C=C/C(=O)N(C)C)c2)cc1 [Compound 14, (E)-3-Bromo-5-(3-(dimethylamino)-3-oxoprop-1-en-1-yl)-N-(4-methylbenzyl)benzamide]
increased activity over terminal primary amide 12 (AKR1C3; AKR1C3 inhibition): > 66 fold | IC50 (AKR1C3; read-out: IC50 AKR1C3): 0.4 µM

COc1ccc(-c2cc(/C=C/C(=O)O)cc(C(=O)NCc3ccc(C)cc3)c2)cc1 [Compound A1-l, (E)-3-(4′-Methoxy-5-((4-methylbenzyl)carbamoyl)-[1,1′-biphenyl]-3-yl)acrylic acid]
IC50 (AKR1C3; [1]): 0.17 ± 0.03 µM

Cc1ccc(CNC(=O)c2cc(/C=C/C(=O)O)cc(-c3ccc(Oc4ccccc4)cc3)c2)cc1 [Compound A1-n, (E)-3-(5-((4-Methylbenzyl)carbamoyl)-4′-phenoxy-[1,1′-biphenyl]-3-yl)acrylic acid]
selectivity over AKR1C2 (AKR1C3): 51 fold | IC50 (AKR1C3; [1]): 0.094 ± 0.01 µM | IC50 (AKR1C2; [2]): 4.8 ± 1.2 µM

Cc1ccc(CNC(=O)c2cc(/C=C/C(N)=O)cc(-c3ccc(Oc4ccccc4)cc3)c2)cc1 [Compound 13, (E)-5-(3-Amino-3-oxoprop-1-en-1-yl)-N-(4-methylbenzyl)-4′-phenoxy-[1,1′-biphenyl]-3-carboxamide]
IC50 (AKR1C3; read-out: IC50 AKR1C3): 2.7 µM

CC[C@@H](NC(=O)c1cc(/C=C/C(=O)O)cc(-c2ccc(Oc3ccccc3)cc2)c1)c1ccccc1 [Compound 20b, (R,E)-3-(4′-Phenoxy-5-((1-phenylpropyl)carbamoyl)-[1,1′-biphenyl]-3-yl)acrylic acid]
IC50 (AKR1C3; [4]): 0.26 ± 0.0166 µM

Cc1ccc(CNC(=O)c2cc(/C=C/C(=O)O)cc(-c3ccc(-c4ccccc4)cc3)c2)cc1 [Compound A1-u, (E)-3-(5-((4-Methylbenzyl)carbamoyl)-[1,1′:4′,1″-terphenyl]-3-yl)acrylic acid]
Selectivity 1C2:1C3 (AKR1C3; Table 2): 580 | IC50 (AKR1C3; [1]): 0.05 ± 0.004 µM | IC50 (AKR1C2; [2]): 29 ± 4.8 µM | IC50 (AKR1C4): 2.4 ± 0.15 µM

Cc1ccc(CNC(=O)c2cc(/C=C/C(=O)O)cc(-c3ccc(F)cc3F)c2)cc1 [Compound A1-g, (E)-3-(2′,4′-Difluoro-5-((4-methylbenzyl)carbamoyl)-[1,1′-biphenyl]-3-yl)acrylic acid]
IC50 (AKR1C3; read-out: IC50 AKR1C3): 0.13 µM
